The results in this text go back to patent publication US12083101B2, “Biaryl derivatives as YAP/TAZ-TEAD protein-protein interaction inhibitors” (Novartis AG, priority 2020, dated 2024).

SMILES strings stand for the structures. Where a name gives a salt, the structure may show the parent alone.

Chain of Avi-humanTEAD4 217-434 / Cy5 labeled humanYAP 60-100 (Q15561 217-434): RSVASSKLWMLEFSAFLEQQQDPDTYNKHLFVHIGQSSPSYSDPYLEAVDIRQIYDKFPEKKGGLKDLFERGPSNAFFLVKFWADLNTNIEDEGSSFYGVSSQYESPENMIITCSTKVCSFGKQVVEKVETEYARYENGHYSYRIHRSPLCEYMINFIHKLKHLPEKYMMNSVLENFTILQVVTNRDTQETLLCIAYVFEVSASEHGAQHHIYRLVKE

This assay addresses Avi-humanTEAD4 217-434 / Cy5 labeled humanYAP 60-100 (Homo sapiens (Human), UniProt Q15561). In words: TR-FRET YAP-TEAD4 in-vitro biochemical assay. Type of assay: binding. The note with it: 1 nM Avi-humanTEAD4 217-434, 20 nM Cy5-humanYAP 60-100, 1 h room temperature. The method, then: N-terminus Cy5 labeled humanYAP^60-100 (20 nM) was then added to this preparation. Compounds were dissolved at 10 mM in 100% DMSO and serial dilutions were made in 100% DMSO. The diluted compound solutions were incubated in white 384-well plates (Greiner Bio-One) for 1 h at room temperature with the above described mix. The final DMSO concentration present in the assay was 1%. […] The IC50 values were estimated by fitting the data by nonlinear fit regression (GraphPad Prism).
For orientation: Time-resolved FRET reads energy transfer from a long-lived donor to a nearby acceptor.
What is called IC50 is the point on the concentration scale where inhibition reaches its midpoint. A lower IC50 goes with inhibition by little substance. `COCCOc1ncc(C(N)=O)c(-c2c(Cl)c(F)cc3c2[C@H](C)[C@@](CN)(c2ccccc2)O3)c1F` (atropisomer, axis not shown) [Example 108, 4-((2S,3S,4S)-2-(aminomethyl)-5-chloro-6-fluoro-3-methyl-2-phenyl-2,3-dihydrobenzofuran-4-yl)-5-fluoro-6-(2-methoxyethoxy)nicotinamide] gave an IC50 of 2 nM.

`COc1ccc(C(N)=O)c(-c2c(Cl)ccc3c2[C@H](O)[C@@](CN)(c2ccc[nH]c2=O)O3)c1F` (atropisomer, axis not shown) [Example 92, 2-((2S,3S,4S)-2-(Aminomethyl)-5-chloro-3-hydroxy-2-(2-oxo-1,2-dihydropyridin-3-yl)-2,3-dihydrobenzofuran-4-yl)-3-fluoro-4-methoxybenzamide] returned an IC50 of 22 nM.

As for `C[C@]1(O)CC[C@@H](NC[C@@]2(c3ccccc3)Cc3c(cc(F)c(Cl)c3-c3c(C(N)=O)ccc(OC[C@H]4CCCO4)c3F)O2)CC1` (atropisomer, axis not shown) [Example 67a, 2-((2S,4S)-5-chloro-6-fluoro-2-((((cis)-4-hydroxy-4-methylcyclohexyl)amino)methyl)-2-phenyl-2,3-dihydrobenzofuran-4-yl)-3-fluoro-4-(((R)-tetrahydrofuran-2-yl)methoxy)benzamide], half-maximal inhibition (IC50) required 2 nM.

On to `CNC[C@@]1(c2ccccc2)Cc2c(cc(F)c(Cl)c2-c2c(C(N)=O)ccc(OC)c2F)O1` (atropisomer, axis not shown) [Example 46, 2-((2S,4S)-5-Chloro-6-fluoro-2-((methylamino)methyl)-2-phenyl-2,3-dihydrobenzofuran-4-yl)-3-fluoro-4-methoxybenzamide], for which half-maximal inhibition (IC50) was put at 3 nM.

In turn, `Cn1nccc1NC(=O)c1ccc(F)c(F)c1-c1c(Cl)ccc2c1C[C@@](CN)(c1ccccc1)O2` (atropisomer, axis not shown) [Example 24, 2-((2S,4S)-2-(aminomethyl)-5-chloro-2-phenyl-2,3-dihydrobenzofuran-4-yl)-3,4-difluoro-N-(1-methyl-1H-pyrazol-5-yl)benzamide] gave an IC50 of 6 nM.

Compound `CS(=O)(=O)NC1CCC(NC[C@@]2(c3ccccc3)Cc3c(cc(F)c(Cl)c3-c3c(C(N)=O)ccc(OC(F)F)c3F)O2)CC1` (single isomer, unassigned) [Example 57a] gave an IC50 of 3 nM.

`NC[C@@]1(c2ccccc2)Cc2c(ncc(Cl)c2-c2c(F)cccc2C(N)=O)O1` (atropisomer, axis not shown) [Example 131, 2-((2S,4S)-2-(Aminomethyl)-5-chloro-2-phenyl-2,3-dihydrofuro[2,3-b]pyridin-4-yl)-3-fluorobenzamide] gave an IC50 of 1290 nM.

`COc1ncc(C(N)=O)c(-c2c(Cl)c(F)cc3c2C[C@@](CN[C@H]2CC[C@@](C)(O)CC2)(c2ccccc2)O3)c1F` (atropisomer, axis not shown) [Example 66b, 4-((2S,4S)-5-chloro-6-fluoro-2-((((cis)-4-hydroxy-4-methylcyclohexyl)amino)methyl)-2-phenyl-2,3-dihydrobenzofuran-4-yl)-5-fluoro-6-methoxynicotinamide] had an IC50 of 2 nM.

On to `NC(=O)c1ccc(OC(F)F)c(F)c1-c1c(Cl)c(F)cc2c1C[C@@](CN[C@H]1C[C@H](COC(F)F)C1)(c1ccccc1)O2` (atropisomer, axis not shown) [Example 80, 2-((2S,4S)-5-chloro-2-(((trans-3-((difluoromethoxy)methyl)cyclobutyl)amino)methyl)-6-fluoro-2-phenyl-2,3-dihydrobenzofuran-4-yl)-4-(difluoromethoxy)-3-fluorobenzamide], for which the IC50 turned out to be 14 nM.

Regarding `CNC[C@]1(c2ccccn2)Oc2cc(F)c(Cl)c(-c3c(C(N)=O)ccc(OCCO)c3F)c2[C@@H]1C` (atropisomer, axis not shown) [Example 112, 2-((2R,3S,4S)-5-chloro-6-fluoro-3-methyl-2-((methylamino)methyl)-2-(pyridin-2-yl)-2,3-dihydrobenzofuran-4-yl)-3-fluoro-4-(2-hydroxyethoxy)benzamide], the IC50 came out at 1 nM.

For the compound `NC(=O)c1ccc(OC(F)F)c(F)c1-c1c(Cl)c(F)cc2c1[C@H](O)[C@@](CN[C@H]1CC[C@@H](O)CC1)(c1ccccc1)O2` (relative stereo) [Example 100b, 2-((2S,3S,4S)-5-chloro-6-fluoro-3-hydroxy-2-((((cis)-4-hydroxycyclohexyl)amino)methyl)-2-phenyl-2,3-dihydrobenzofuran-4-yl)-4-(difluoromethoxy)-3-fluorobenzamide], the IC50 turned out to be 5 nM.

For `NC[C@@]1(c2ccccc2)Cc2c(ccc(Cl)c2-c2c(C(N)=O)cnc(OC(F)F)c2F)O1` (atropisomer, axis not shown) [Example 19, 4-((2S,4S)-2-(Aminomethyl)-5-chloro-2-phenyl-2,3-dihydrobenzofuran-4-yl)-6-(difluoromethoxy)-5-fluoronicotinamide], the IC50 turned out to be 3 nM.

The compound `CS(=O)(=O)N1CCC(NC[C@@]2(c3ccccc3)Cc3c(cc(F)c(Cl)c3-c3c(C(N)=O)ccc(OC(F)F)c3F)O2)CC1` (atropisomer, axis not shown) [Example 63, 2-((2S,4S)-5-chloro-6-fluoro-2-(((1-(methylsulfonyl)piperidin-4-yl)amino)methyl)-2-phenyl-2,3-dihydrobenzofuran-4-yl)-4-(difluoromethoxy)-3-fluorobenzamide] gave an IC50 of 69 nM.

For `NC(=O)c1ccc(OC(F)F)c(F)c1-c1c(Cl)c(F)cc2c1C[C@@](CN[C@H]1CC[C@H](n3cnnn3)CC1)(c1ccccc1)O2` (atropisomer, axis not shown) [Example 79, 2-((2S,4S)-2-((((trans)-4-(1H-tetrazol-1-yl)cyclohexyl)amino)methyl)-5-chloro-6-fluoro-2-phenyl-2,3-dihydrobenzofuran-4-yl)-4-(difluoromethoxy)-3-fluorobenzamide], it took 11 nM to reach half-maximal inhibition (IC50).

For `NC[C@@]1(c2ccccc2)Cc2c(ccc(Cl)c2-c2c(F)cccc2C(N)=O)O1` (stereo in doubt) [Example 4a, 2-((2S*,4S*)-2-(Aminomethyl)-5-chloro-2-phenyl-2,3-dihydrobenzofuran-4-yl)-3-fluorobenzamide], the IC50 stood at 34 nM.

As for `NC[C@@]1(c2ccccc2)Cc2c(ccc(Cl)c2-c2c(Cl)cccc2C(N)=O)O1` (atropisomer, axis not shown) [Example 7, 2-((2S,4S)-2-(aminomethyl)-5-chloro-2-phenyl-2,3-dihydrobenzofuran-4-yl)-3-chlorobenzamide trifluoroacetate salt], the IC50 turned out to be 65 nM.

In the case of `N#Cc1ccc2c(c1-c1ccccc1)C[C@@](CN[C@H]1CC[C@H](O)CC1)(c1ccccc1)O2` [Example 130, (S)-2-((((trans)-4-Hydroxycyclohexyl)amino)methyl)-2,4-diphenyl-2,3-dihydrobenzofuran-5-carbonitrile], the IC50 is 797 nM.

Compound `CS(=O)(=O)COc1ccc(C(N)=O)c(-c2c(Cl)c(F)cc3c2C[C@@](CN)(c2ccccc2)O3)c1F` (atropisomer, axis not shown) [Example 40, 2-((2S,4S)-2-(aminomethyl)-5-chloro-6-fluoro-2-phenyl-2,3-dihydrobenzofuran-4-yl)-3-fluoro-4-((methylsulfonyl)methoxy)benzamide] gave an IC50 of 42 nM.

In the case of `COc1ncc(C(N)=O)c(-c2c(Cl)c(F)cc3c2C[C@@](CN[C@H]2CC[C@](C)(O)CC2)(c2ccccc2)O3)c1F` (atropisomer, axis not shown) [Example 66a, 4-((2S,4S)-5-chloro-6-fluoro-2-((((trans)-4-hydroxy-4-methylcyclohexyl)amino)methyl)-2-phenyl-2,3-dihydrobenzofuran-4-yl)-5-fluoro-6-methoxynicotinamide], half-maximal inhibition (IC50) required 2 nM.

As to `CNC(=O)[C@H]1CC[C@H](NC[C@@]2(c3ccccc3)Cc3c(ccc(Cl)c3-c3c(F)cccc3C(N)=O)O2)CC1` (relative stereo) [Example 139a, 2-((2S,4S)-5-Chloro-2-((((trans)-4-(methylcarbamoyl)cyclohexyl)amino)methyl)-2-phenyl-2,3-dihydrobenzofuran-4-yl)-3-fluorobenzamide], the IC50 was 21 nM.

As for `NC[C@@]1(c2ccccc2)Cc2c(ccc(Cl)c2-c2c(C(N)=O)ccc(Cl)c2F)O1` (atropisomer, axis not shown) [Example 8, 2-((2S,4S)-2-(aminomethyl)-5-chloro-2-phenyl-2,3-dihydrobenzofuran-4-yl)-4-chloro-3-fluorobenzamide], the midpoint of inhibition, the IC50, lay at 4 nM.

In turn, `NC(=O)c1ccc(OC(F)F)c(F)c1-c1c(Cl)c(F)cc2c1C[C@@](CNC1CCC3(CCC(=O)N3)CC1)(c1ccccc1)O2` (single isomer, unassigned) [Example 59a] showed an IC50 of 6 nM.

As for `CNC[C@@]1(c2ccccc2)Cc2c(cc(F)c(Cl)c2-c2c(C(N)=O)cnc(OCCO)c2F)O1` (atropisomer, axis not shown) [Example 49, 4-((2S,4S)-5-Chloro-6-fluoro-2-((methylamino)methyl)-2-phenyl-2,3-dihydrobenzofuran-4-yl)-5-fluoro-6-(2-hydroxyethoxy)nicotinamide], the IC50 worked out at 5 nM.

With `COCCOc1ccc(C(N)=O)c(-c2c(Cl)c(F)cc3c2[C@H](C)[C@@](CN[C@H]2CC[C@](C)(O)CC2)(c2ccccc2)O3)c1F` (atropisomer, axis not shown) [Example 116a, 2-((25,35,4S)-5-chioro-6-fluoro-2-((((trans)-4-hydroxy-4-methylcyclohexyl)amino)methyl)-3-methyl-2-phenyl-2,3-dihydrobenzofuran-4-yl)-3-fluoro-4-(2-methoxyethoxy)benzamide], the IC50 is below 1 nM.
